No end group written: not given here.
Assays:
HepG2 = assay: Cytotoxicity against HepG2; assay type: cell-based; conditions: HepG2 human cell line
large panel of pathogens = conditions: pure DD; cited from earlier work

Substance	IC50 (HepG2)	decrease in activity when comparing DA and DD, fold (large panel of pathogens)
D32: engineered darobactin, core peptide WNWCKRW, cysteine disulfide-bonded to L-cysteine and lactic acid (not fully specified; also: Cys4 disulfide-bonded to L-cysteine, lactic acid attached, position not given here)	> 37 µg/mL	–
WNWTRSF (also: bicyclic or more (positions not given here)) [DD]	–	16 fold

— publication PMC10107326 (Angewandte Chemie (International Ed. in English), 2022)
